This is an account of results in publication PMC10816640, “Discovery of Novel Diphenyl Acrylonitrile Derivatives That Promote Adult Rats’ Hippocampal Neurogenesis” (International Journal of Molecular Sciences, 2024).

One may read the Cmax as the peak of the concentration-time curve. What is called MRT is a mean duration of stay, worked out from the concentration-time curve. The term Tmax denotes the time at which the peak concentration occurs.

“And” between values parts separate entries of the source, which are not always exact repeats. Identical values can stand only once. Marks after values point to notes of the source that are not given here.

Data set [1] relates to newborn cells in the subgranular zone. Put plainly: BrdU+ newborn cells, rats sacrificed 28 days after BrdU. As to conditions: nine-week-old rats (n = 2), i.p. 4.0 mg/kg/day for 28 days, BrdU pulse, Figure 7A. It counts as in vivo, rat. On the procedure:
The study employed a rat model, wherein nine-week-old rats were administered intraperitoneally with the compound at a dose of 4.0 mg/kg/day for 28 days and then treated with a pulse of BrdU. Instead of sacrificing the rats 24 h after the BrdU injections, the rats were sacrificed after another 28 days. The brains were then isolated and cryosectioned. Eight randomly selected slices were subjected to immunohistochemical staining. This staining enabled the co-localization of the BrdU-incorporated cells with the NeuN marker, enabling the definition of the compounds that could promote the differentiation of newborn neural progenitor cells into mature functional neurons. The compounds were dissolved in reagent-grade soybean oil containing 10% ethanol to reach a drug concentration of 2.8 mg/mL. The rats in the experimental group received intraperitoneal injections of the compounds at a dose of 4.0 mg/kg/d for 28 consecutive days. As a control, the vehicle group was administered injections of reagent-grade soybean oil containing 10% ethanol. BrdU (Sigma-Aldrich, St. louis, MA, USA) solution, prepared in physiological saline at a concentration of 10 mg/mL, was administered to all rats on day 29. Each rat received two injections of BrdU at a dosage of 50 mg/kg, with a 2 h interval between injections. The rats were euthanized 24 h (or 28 days) after the final BrdU injection. Two or four rats per group were anesthetized using pentobarbital sodium (70 mg/kg) and subsequently perfused with physiological saline. The brain tissue was carefully dissected and fixed in 4% paraformaldehyde at 4 °C for one week. Next, the brain tissue underwent dehydration using a phosphate-buffered saline (PBS) solution containing 20% to 30% sucrose. Finally, the brain tissue was cryosectioned into slices with a thickness of 30 μm, and eight slices were randomly selected for further analysis. The assessment of new cell proliferation was conducted using BrdU staining. To eliminate endogenous peroxides, sections were exposed to 1% H2O2 for 30 min at RT. Cellular denaturation was achieved by treating the sections with 2 M HCl at 37 °C for 1 h, followed by rinsing in 0.1 M borate buffer (pH 8.5). Tissue sections were subjected to blocking in a solution consisting of 5% goat serum and 0.5% Triton X-100 in PBS at RT for 1–2 h. The specimens were then incubated overnight at 4 °C with a mouse primary antibody specific to BrdU (diluted at 1:500; Millipore, Billerica, MA, USA). Subsequently, the DAB kit was employed for 2 h of incubation at RT. The differentiation process of NPCs was visualized through the utilization of the NeuN/BrdU double staining technique. Tissue sections were subjected to an incubation period in a blocking buffer at RT for 1 to 2 h. The specimens were exposed to a rabbit anti-NeuN antibody (diluted at 1:500, Abcam, Cambridge, MA, UK) and a primary antibody, BrdU (diluted at 1:500), overnight at 4 °C. Afterwards, the sections were treated with anti-mouse 488 and anti-rabbit TRITC secondary antibodies for 2 h at RT. The data were presented as mean ± SEM (standard error of the mean) and visualized using GRAPHPAD PRISM 6 (Graphpad Software, La Jolla, CA, USA). Statistical analysis was conducted utilizing one-way analysis of variance (ANOVA) followed by a post hoc test. Subsequent to the statistical treatment, the observed discrepancies were determined to be statistically significant (p < 0.05).

Data set [2] is described as follows: Pharmacokinetic study, brain tissue distribution. The data set is classed as in vivo, SD rats. Particulars: 4 mg/kg i.p. On the procedure: (§1) The SD rats (approximately 200 g) were randomly assigned to eight groups, with each group comprising three rats. All experimental procedures were carried out in accordance with the ethical guidelines outlined by the Ethics Committee of the Beijing Institute of Technology. The administration medium consisted of a combination of 5% dimethyl sulfoxide (DMSO) and 95% soybean oil. The drug was administered intraperitoneally at a dose of 4 mg/kg. Prior to the experiment, the experimental animals were subjected to a 12 h fasting period with free access to water. Following drug administration, blood samples were collected from the rat’s orbital vein at predetermined time points. The collected blood was then placed in sodium heparin anticoagulation tubes. The rats were euthanized, and their brain tissues were carefully extracted and loaded into 5 mL EP tubes. The collection time points for plasma and brain tissue samples were as follows: 0 min, 15 min, 30 min, 1 h, 2 h, 4 h, 8 h, and 24 h. Within 2 h after collection, the blood samples were centrifuged at 6000 rpm for 10 min at a temperature of 4 °C. The resulting samples were then stored in a −20 °C refrigerator.
Tissue samples were first weighed and homogenized to ensure consistent testing conditions. The determination of original compound concentrations in plasma and tissue homogenates was performed using LC-MS/MS. Specifically, 50 μL of plasma or tissue samples were mixed with 50 μL of propranolol and 100 μL of acetonitrile for protein precipitation. The resulting mixture was then centrifuged at 12,000 rpm for 5 min, and the supernatant was diluted and analyzed through LC-MS/MS. The liquid chromatography was conducted on a Thermo Scientific Q Exactive HF-X instrument (Thermo Fisher Scientific, Waltham, MA, USA), employing an ACQUITY UPLC BEH C18 Column with dimensions of 130 Å, 1.7 µm, 2.1 mm × 100 mm. […] The quantification of drug concentration in plasma samples was performed using the internal standard method, and the obtained pharmacokinetic parameters were calculated using Phoenix WinNonlin 7.0 software.

Data set [3] is described as follows: Pharmacokinetic study, plasma. As to conditions: rat blood/plasma, 4 mg/kg i.p. The data set is classed as in vivo, SD rats. On the procedure:
as §1
Tissue samples were first weighed and homogenized to ensure consistent testing conditions. The determination of original compound concentrations in plasma and tissue homogenates was performed using LC-MS/MS. Specifically, 50 μL of plasma or tissue samples were mixed with 50 μL of propranolol and 100 μL of acetonitrile for protein precipitation. The resulting mixture was then centrifuged at 12,000 rpm for 5 min, and the supernatant was diluted and analyzed through LC-MS/MS. The liquid chromatography was conducted on a Thermo Scientific Q Exactive HF-X instrument (Thermo Fisher Scientific, Waltham, MA, USA), employing an ACQUITY UPLC BEH C18 Column with dimensions of 130 Å, 1.7 µm, 2.1 mm × 100 mm. Additionally, a pre-column equipped with an ACQUITY UPLC BEH C18 VanGuard Pre-Column (130 Å, 1.7 µm, 2.1 mm × 5 mm) was utilized. The liquid phase method employed gradient elution with mobile phases consisting of acetonitrile and a 0.1% formic acid aqueous solution. Mass spectrometry was conducted in positive ion mode. The quantification of drug concentration in plasma samples was performed using the internal standard method, and the obtained pharmacokinetic parameters were calculated using Phoenix WinNonlin 7.0 software.

`CC(C)C(=O)Nc1ccc(/C(C#N)=C/c2ccc3c(c2)OCO3)cc1` [29b, (Z)-N-(4-(2-(benzo[d][1, 3]dioxol-5-yl)-1-cyanovinyl)phenyl)isobutyramide]: the “proliferative activity over the longer 28 day period (number of BrdU+ cells)” value in data set [1] is listed as “could promote the proliferation of progenitors”.

Regarding `CC(C)C(=O)Nc1ccc(/C=C(\C#N)c2ccc3c(c2)OCO3)cc1` [32b, (Z)-N-(4-(2-(benzo[d][1, 3]dioxol-5-yl)-2-cyanovinyl)phenyl)isobutyramide], in data set [2] (rat brain tissue, n = 3), the Cmax is 168 ± 47 ng/g. The “AUC0–24h” value in data set [2] (rat brain tissue, n = 3, 4 mg/kg) is 608 ng·h/g and 608 ± 220 ng·h/g. Moreover, in data set [2] (rat), the “Ratio = Cmax of Brain/Cmax of Blood” value is 1.28 ^a. Besides, in data set [3], the “AUC0–inf” value stood at 385 ± 82.3 ng·h/mL, the CL is 10,770 ± 2616 mL/h/kg, the MRT worked out at 2.46 ± 0.14 h and the T1/2 worked out at 2.23 h. For the same compound, in data set [3], the time to peak (Tmax) was 1.5 h and the Vz was 32,829 ± 4581 mL/kg. Further, in data set [3] (n = 3), the “AUC0–24h” value came to 383 ± 84.4 ng·h/mL and the Cmax worked out at 132 ± 9 ng/mL.
